Results published in patent US20220306623A1, “PYRIDYL OR PYRIMIDYL MTOR KINASE INHIBITORS” (GLAXOSMITHKLINE INTELLECTUAL PROPERTY DEVELOPMENT LIMITED, priority 2019, published 2022).
Read-outs that look alike come from different tables or passages of the source.

Target: T1, mTOR (Homo sapiens, UniProt P42345)
T1 construct: capturing of endogenously expressed target proteins from cell extracts by a bead-immobilized capturing ligand; endogenous in cells; host or cells: HuT-78 cells (ECACC 88041901), cell lysate
Test: mTOR kinobeads competition-binding assay
Settings: HuT-78 cell lysate
Description: The affinity of test compounds for mTOR was determined in the mTOR kinobeads assay. This is a competition-binding assay based on the capturing of endogenously expressed target proteins from cell extracts by a bead-immobilized capturing ligand in the presence of the test compound.
HuT-78 cells (European Collection of Authenticated Cell Cultures, 88041901) were cultured according to vendor's instructions. Frozen cell pellets were homogenized in 3× pellet volumes lysis buffer (50 mM Tris-HCl, 0.4% (v/v) Igepal-CA630, 5% glycerol, 150 mM NaCl, 1.5 mM MgCl2, 25 mM NaF, 1 mM sodium vanadate, 1 mM DTT, pH 7.5, supplemented with EDTA-free protease inhibitor tablet (Roche)). The sample was dispersed using a Dounce homogenizer, kept rotating for 30 min at 4° C., and centrifuged for 10 min at 20000 gat 4° C. The supernatant was centrifuged again for 1 h at 145 000 g. The protein concentration was determined by Bradford assay (BioRad), aliquots were snap frozen in liquid nitrogen and stored at −80° C.
The capturing matrices were generated by derivatizing N-hydroxysuccinimide (NHS) activated Sepharose 4 beads (GE Healthcare) with the functionalized ligands Compound A and Compound C at a ligand density of 5 mM. Remaining NHS-groups were blocked with ethanolamine.
For the mTOR kinobeads assay the matrices were combined in a 1:1 ratio and equilibrated in DP buffer (50 mM Tris-HCl (pH 7.5), 0.4% (v/v) Igepal-CA630, 5% (v/v) glycerol, 150 mM NaCl, 1.5 mM MgCl2, 25 mM NaF, 1 mM Na3VO4, 1 mM dithiothreitol). All steps of the mTOR kinobeads assay were performed at 4° C. or on ice. The cell lysate was diluted with DP buffer to a final concentration of 5 mg/ml and a final detergent concentration of 0.4% (v/v) Igepal-CA630. For the assay 250 μg cell lysate and 2.5 μl capturing matrix per well (final assay volume: 75 μl) were incubated in the presence of test compounds in a 384-well filter plate (MultiScreenHTS HV Filter Plate, 0.45 μm, MZHVNOW50, Merck Millipore). Each plate contained 16 positive (100 μM Compound B) and 16 negative (2% v/v DMSO) control wells. Compounds were tested in a concentration-response applying 1:3 or 1:4 dilution steps for in total 11 data points. DMSO concentration was 2% (v/v). After 2 h incubation on an overhead shaker (Roto-Shake Genie, Scientific Industries Inc.) at 4° C. the non-bound fraction was removed by washing the beads with DP buffer. Proteins retained on the beads were eluted in SDS sample buffer (200 mM Tris (pH 7.4), 250 mM Trizma Base, 4% (w/v) SDS, 20% (v/v) glycerol, 0.01% (w/v) bromophenol blue, 50 mM dithiothreitol) into a collection plate (384 well polypropylene microplate, V-shape, Greiner, 781 280). Eluates were spotted on nitrocellulose membranes (400 nl per spot) using an automated pin-tool liquid transfer (Biomek FX, Beckman). After drying, the membranes were rehydrated in 20% (v/v) ethanol and blocked by incubation with Odyssey blocking buffer (LICOR, 927-40000) for 1 h at room temperature. Blocked membranes were incubated overnight at 25° C. with Odyssey blocking buffer supplemented with a specific anti-mTOR antibody (Cell Signaling, 2972; 1:500) and 0.4% TWEEN-20. Then the membranes were washed in PBST buffer and incubated for 60 minutes at room temperature with the detection antibody (IRDye™ labelled antibody from LI-COR) diluted in Odyssey blocking buffer (LICOR 927-40000) containing 0.2% TWEEN-20. Then the membranes were washed with PBST and finally rinsed twice with PBS buffer to remove residual Tween-20. The membranes were then scanned with the Odyssey® Infrared Imaging System (LI-COR Biosciences). Fluorescence signals were recorded and analyzed according to the instructions of the manufacturer. Concentration response curves were computed with the software Activity Base. All data were normalized to the mean of 16 high (negative control) and 16 low (positive control) control wells on each plate. […]

[1] = bead-immobilized capturing ligand, 2 h at 4° C., mean of multiple experiments, read-out: mean pIC50, mTOR kinobeads assay (converted)
[2] = selected compounds, mean, read-out: mTOR (mean pIC50 values when tested in the mTOR binding assay) (converted)

| Compound | IC50 [1] [nM] | IC50 [2] [nM] |
| --- | --- | --- |
| CC[C@H]1COCCN1c1cc(C2(S(C)(=O)=O)CCOCC2)nc(-c2ccc3[nH]c(CO)cc3n2)n1 [Example 4, (5-{4-[(3S)-3-ethylmorpholin-4-yl]-6-(4-methanesulfonyloxan-4-yl)pyrimidin-2-yl}-1H-pyrrolo[3,2-b]pyridin-2-yl)methanol] | ≤ 1.26 |  |
| CC[C@H]1COCCN1c1cc(CS(=O)(=O)NC)nc(-c2ccc3[nH]c(CO)cc3n2)n1 [Example 10, 1-{6-[(3S)-3-ethylmorpholin-4-yl]-2-[2-(hydroxymethyl)-1H-pyrrolo[3,2-b]pyridin-5-yl]pyrimidin-4-yl}-N-methylmethanesulfonamide] | ≤ 0.0794 |  |
| CC[C@H]1COCCN1c1cc(CS(C)(=O)=O)nc(-c2ccc3[nH]c(CNC)cc3n2)n1 [Example 1, [(5-{4-[(3S)-3-ethylmorpholin-4-yl]-6-(methanesulfonylmethyl)pyrimidin-2-yl}-1H-pyrrolo[3,2-b]pyridin-2-yl)methyl](methyl)amine] | ≤ 1.26 | 0.794 |
| CC[C@H]1COCCN1c1cc(CS(N)(=O)=O)nc(-c2ccc3[nH]c(CNC)cc3n2)n1 [Example 6, {6-[(3S)-3-ethylmorpholin-4-yl]-2-{2-[(methylamino)methyl]-1H-pyrrolo[3,2-b]pyridin-5-yl}pyrimidin-4-yl}methanesulfonamide] | ≤ 1.26 |  |
| CC[C@H]1COCCN1c1cc(CS(C)(=O)=O)nc(-c2ccc3[nH]c(CO)cc3n2)n1 [Example 2, (S)-(5-(4-(3-ethylmorpholino)-6-((methylsulfonyl)methyl)pyrimidin-2-yl)-1H-pyrrolo[3,2-b]pyridin-2-yl)methanol] | ≤ 1.26 |  |
| CC[C@H]1COCCN1c1cc(CS(=O)(=O)N(C)C)nc(-c2ccc3[nH]c(CO)cc3n2)n1 [Example 9, 1-{6-[(3S)-3-ethylmorpholin-4-yl]-2-[2-(hydroxymethyl)-1H-pyrrolo[3,2-b]pyridin-5-yl]pyrimidin-4-yl}-N,N-dimethylmethanesulfonamide] | ≤ 0.316 |  |

Further lines, results first:

| IC50 [1] [nM] | IC50 [2] [nM] | Compound |
| --- | --- | --- |
| ≤ 1.26 |  | CC[C@H]1COCC(=O)N1c1cc(C2(S(C)(=O)=O)CCOCC2)cc(-c2ccc3[nH]c(C)cc3n2)n1 [Example 25, (S)-5-ethyl-4-(6-(2-methyl-1H-pyrrolo[3,2-b]pyridin-5-yl)-4-(4-(methylsulfonyl)tetrahydro-2H-pyran-4-yl)pyridin-2-yl)morpholin-3-one] |
| ≤ 0.316 |  | CC[C@H]1COCC(=O)N1c1cc(C2(S(C)(=O)=O)CCOCC2)cc(-c2ccc3[nH]c(CO)cc3n2)n1 [Example 26] |
| ≤ 0.316 | 0.316 | CCc1cc2nc(-c3nc(CS(C)(=O)=O)cc(N4C(=O)COC[C@@H]4CC)n3)ccc2[nH]1 [Example 15, (5S)-5-ethyl-4-(2-{2-ethyl-1H-pyrrolo[3,2-b]pyridin-5-yl}-6-(methanesulfonylmethyl)pyrimidin-4-yl)morpholin-3-one] |
| ≤ 1.26 |  | CC[C@H]1COCCN1c1cc(C2(S(C)(=O)=O)CCOCC2)nc(-c2ccc3[nH]c(C)cc3n2)n1 [Example 13, (3S)-3-ethyl-4-[6-(4-methanesulfonyloxan-4-yl)-2-{2-methyl-1H-pyrrolo[3,2-b]pyridin-5-yl}pyrimidin-4-yl]morpholine] |
| ≤ 1.26 |  | CC[C@H]1COCCN1c1cc(CS(N)(=O)=O)cc(-c2ccc3[nH]c(C)cc3n2)n1 [Example 23, (S)-(2-(3-ethylmorpholino)-6-(2-methyl-1H-pyrrolo[3,2-b]pyridin-5-yl)pyridin-4-yl)methanesulfonamide] |
| ≤ 1.26 |  | CC[C@H]1COCC(=O)N1c1cc(CS(C)(=O)=O)cc(-c2ccc3[nH]c(CO)cc3n2)n1 [Example 27] |
| ≤ 1.26 | 0.631 | CC[C@H]1COCCN1c1cc(CS(=O)(=O)N(C)C)nc(-c2ccc3[nH]c(CNC)cc3n2)n1 [Example 16, 1-{6-[(3S)-3-ethylmorpholin-4-yl]-2-{2-[(methylamino)methyl]-1H-pyrrolo[3,2-b]pyridin-5-yl}pyrimidin-4-yl}-N,N-dimethylmethanesulfonamide] |
|  | 6.31 | CC[C@H]1COCCN1c1cc(C2(S(C)(=O)=O)CCNCC2)cc(-c2ccc3[nH]c(C)cc3n2)n1 [Example 18, (S)-3-ethyl-4-(6-(2-methyl-1H-pyrrolo[3,2-b]pyridin-5-yl)-4-(4-(methylsulfonyl)piperidin-4-yl)pyridin-2-yl)morpholine] |
| ≤ 1.26 | 0.501 | CC[C@H]1COCC(=O)N1c1cc(CS(C)(=O)=O)cc(-c2ccc3[nH]c(C)cc3n2)n1 [Example 24, (S)-5-ethyl-4-(6-(2-methyl-1H-pyrrolo[3,2-b]pyridin-5-yl)-4-((methylsulfonyl)methyl)pyridin-2-yl)morpholin-3-one] |
| ≤ 0.2 | 0.2 | CC[C@H]1COCC(=O)N1c1cc(CS(C)(=O)=O)nc(-c2ccc3[nH]c(C)cc3n2)n1 [Example 14, (5S)-5-ethyl-4-[6-(methanesulfonylmethyl)-2-{2-methyl-1H-pyrrolo[3,2-b]pyridin-5-yl}pyrimidin-4-yl]morpholin-3-one] |
